Experimental data as given in US9206123B2, “Prodrugs of inhibitors of plasma kallikrein” (ActiveSite Pharmaceuticals, Inc., priority 2009, dated 2015).
Entries after “also recorded” stand apart in the source; their conditions may differ. Non-standard residues stand in square brackets, D forms with d. *: point of attachment. CH2Cl = ClC*

Experiments:
arthritis = settings: rat models of arthritis; cited from earlier work
[1] = target: T1, Human plasma kallikrein (PK) (Homo sapiens, UniProt P03952); assay: Human plasma kallikrein (PK) enzymatic inhibition assay, substrate H-D-Pro-Phe-Arg-pNA; type: biochemical; settings: corrected Ki from Ki,app; 2 nM PK, 0.05 M HEPES pH 7.5, Km 0.33 mM
T1 construct: purchased Enzyme Research Laboratories (Gary, Ind.)
T1 sequence (P03952 391-638 limits assumed): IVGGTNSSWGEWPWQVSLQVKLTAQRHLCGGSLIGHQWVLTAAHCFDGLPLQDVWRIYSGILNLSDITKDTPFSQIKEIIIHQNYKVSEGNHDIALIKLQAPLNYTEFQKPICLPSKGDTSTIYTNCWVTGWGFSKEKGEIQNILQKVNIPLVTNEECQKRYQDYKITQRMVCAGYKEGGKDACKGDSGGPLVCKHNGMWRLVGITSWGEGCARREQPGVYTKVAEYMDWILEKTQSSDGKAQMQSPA
T1 sequence (P03952 20-390 partner limits assumed): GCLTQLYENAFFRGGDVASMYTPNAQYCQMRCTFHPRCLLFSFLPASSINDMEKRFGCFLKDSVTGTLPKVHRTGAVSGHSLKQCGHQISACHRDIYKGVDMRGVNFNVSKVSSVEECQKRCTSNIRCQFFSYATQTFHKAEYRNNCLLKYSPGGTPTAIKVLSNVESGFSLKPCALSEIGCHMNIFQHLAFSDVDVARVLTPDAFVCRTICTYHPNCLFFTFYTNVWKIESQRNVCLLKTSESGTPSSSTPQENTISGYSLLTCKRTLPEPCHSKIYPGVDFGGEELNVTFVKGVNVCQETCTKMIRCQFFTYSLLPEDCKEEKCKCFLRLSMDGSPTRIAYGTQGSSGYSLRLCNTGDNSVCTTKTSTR
Protocol: Human plasma kallikrein (PK) was obtained from Enzyme Research Laboratories (Gary, Ind.). The enzymatic activity of PK was assayed using the synthetic peptide substrate H-D-Pro-Phe-Arg-pNA (Bachem, Peninsula City, Calif.) with the cleavage of the substrate by the enzyme resulting in an increase in A405, measured using a Molecular Devices Vmax Kinetic Microplate Reader. The uninhibited (control) activity of PK was determined by adding 190 μl of PK solution (2 nM in 0.05 M HEPES, pH 7.5, 0.01% Triton X-100) to 10 μl of H-D-Pro-Phe-Arg-pNA (2 mM in DMSO) in individual microtiter plate wells, mixed immediately by shaking, and the rate of increase in absorbance at 405 nm (A405) determined over 120-180 sec. In parallel, compounds of general formula V were mixed in separate wells with the synthetic substrate to attain final concentrations of between 0.01-10 μM in the final 200 μl reaction mixture, and the reaction initiated by the addition of 190 μl of the PK solution. A diminished rate of cleavage in the presence of a compound of general formula V denotes inhibition of PK activity, and the apparent inhibition constant (Ki,app) of the interaction can be determined by using the following equation— Ki,app=[I]/(PKControl/PKI−1) where [I]=concentration of inhibitory compound, PKcontrol=rate of substrate cleavage by uninhibited PK, PKI=rate of substrate cleavage by PK in the presence of inhibitory compound.
The corrected Ki of the interaction can be obtained as follows from the calculated Ki,app— Ki=Ki,app/([S]/Km+1) Where [S]=concentration of synthetic substrate, and Km=Michaelis constant of synthetic substrate for PK, in this case determined experimentally to be 0.33 mM under these conditions.

hereditary angioedema = settings: patients with hereditary angioedema; cited from earlier work
sepsis [2] = settings: LPS or bacterial induced sepsis in animals; cited from earlier work
[3] = test system: retinal vascular permeability; settings: angiotensin-II-treated rodents; Phipps et al. 2009; cited from earlier work
ischemic stroke = settings: rat model of ischemic stroke; cited from earlier work
hemorrhagic stroke = settings: model of hemorrhagic stroke; cited from earlier work
[4] = test system: retinal vascular permeability; assay: Angiotensin-II infusion model, retinal vascular permeability by vitreous fluorescein fluorophotometry; type: in vivo, Sprague-Dawley rats; settings: twice-daily oral gavage for five days
Source text: Continuous infusion of the vasoconstrictor peptide angiotensin-II in Sprague-Dawley rats over 3-7 days using subcutaneously implanted Alzet minipumps results in elevated blood pressure, and is accompanied by increased retinal vascular permeability, which can be measured using the technique of vitreous fluorescein fluorophotometry, as described in the prior art (Clermont, A. C., et al (2006) Invest Ophthalmol V is Sci.; 47: 2701-8). […] Inhibition of the excess retinal vascular permeability in this animal model following administration of compounds of the present invention via oral, subcutaneous, topical or intravitreal routes thus provides evidence of inhibition of plasma kallikrein in vivo.

[5] = test system: middle cerebral artery occlusion; settings: mouse model of middle cerebral artery occlusion; cited from earlier work
sepsis [6] = settings: sepsis patients; cited from earlier work

Molecule: Cl.NCC1CCC(C(=O)N[C@@H](Cc2ccccc2)C(=O)Nc2ccc(CC(=O)O)cc2)CC1 (stereo partly drawn) [PKSI-527]
- effect on joint swelling (arthritis): reduce joint swelling

Molecule: Cc1cc(C(=O)NCc2ccc(C(=N)N)cc2)c(C)n1-c1nccs1 [N-[(4-carbamimidoylphenyl)methyl]-2,5-dimethyl-1-thiazol-2-yl-pyrrole-3-carboxamide]
- Ki [1]: 68 nM

Molecule: Cc1cc(C(=O)NCc2ccc(C(=N)N)cc2)c(C)n1-c1ccc(Cl)cc1 [Example 12, N-[(4-carbamimidoylphenyl)methyl]-1-(4-chlorophenyl)-2,5-dimethyl-pyrrole-3-carboxamide]
- Ki [1]: 7 nM

Molecule: Cc1cc(C(=O)NCc2ccc(C(=N)N)cc2)c(C)n1-c1ccccn1 [N-[(4-carbamimidoylphenyl)methyl]-2,5-dimethyl-1-(2-pyridyl)pyrrole-3-carboxamide]
- Ki [1]: 35 nM

Molecule: NC(N)=NCCC[C@@H](N)C(=O)N[C@@H](CCCN=C(N)N)C(=O)N1CCC[C@H]1C(=O)N1C[C@H](O)C[C@H]1C(=O)NCC(=O)N[C@@H](Cc1cccs1)C(=O)N[C@@H](CO)C(=O)N1Cc2ccccc2C[C@@H]1C(=O)N1[C@H](C(=O)N[C@@H](CCCN=C(N)N)C(=O)O)C[C@@H]2CCCC[C@@H]21 [icatibant]
- effect on edema / hereditary angioedema (hereditary angioedema): effective in treating hereditary angioedema

Molecule: H-[dP]-Phe-Arg-CH2Cl [reference compound]
- effect on vascular permeability and lesions (sepsis [2]): reduce vascular permeability in multiple organs and reduce lesions

Molecule: Cc1cc(C(=O)NCc2ccc(C(=N)N)cc2)c(C)n1-c1ccc(F)cc1 [Example 11, N-[(4-carbamimidoylphenyl)methyl]-1-(4-fluorophenyl)-2,5-dimethyl-pyrrole-3-carboxamide]
- Ki [1]: 13 nM

Molecule: Hoe-140
- effect on retinal vascular permeability [3]: reduce retinal vascular permeability

Molecule: Cc1cc(C(=O)NCc2ccc(C(=N)N)cc2)c(C)n1-c1ccc2c(c1)OCCO2 [N-[(4-carbamimidoylphenyl)methyl]-1-(2,3-dihydro-1,4-benzodioxin-6-yl)-2,5-dimethyl-pyrrole-3-carboxamide]
- Ki [1]: 14 nM

Molecule: N=C(N)c1ccc(CNC(=O)c2cnn(Cc3ccccc3)c2)cc1 [ASP-440]
- effect on infarction volume and cerebrovascular edema (ischemic stroke): reduce infarction volume and cerebrovascular edema
- effect on retinal vascular permeability [3]: reduce retinal vascular permeability; also recorded: effective in reducing retinal vascular permeability
- effect on expansion of intracerebral hemorrhage (hemorrhagic stroke): reduce

Molecule: COc1ccc(-n2c(C)cc(C(=O)NCc3ccc(C(=N)N)cc3)c2C)cc1 [Example 13, N-[(4-carbamimidoylphenyl)methyl]-1-(4-methoxyphenyl)-2,5-dimethyl-pyrrole-3-carboxamide]
- Ki [1]: 17 nM

Molecule: COC(=O)/N=C(\N)c1ccc(CNC(=O)c2cc(C)n(-c3ccc(F)cc3)c2C)cc1 [Example 4, (Z)-methyl amino-(4-((1-(4-fluorophenyl)-2,5-dimethyl-pyrrole-3-carbonylamino)methyl)phenyl)methylenecarbamate]
- reduction of retinal vascular permeability [4]: 55%

Molecule: Cc1cc(C(=O)NCc2ccc(C(=N)N)cc2)c(C)n1-c1cccnc1 [N-[(4-carbamimidoylphenyl)methyl]-2,5-dimethyl-1-(3-pyridyl)pyrrole-3-carboxamide]
- Ki [1]: 46 nM

B1: C1-INH: the major endogenous inhibitor of PK (protein, UniProt P05155 23-500, looked up)
Plasma protease C1 inhibitor: NPNATSSSSQDPESLQDRGEGKVATTVISKMLFVEPILEVSSLPTTNSTTNSATKITANTTDEPTTQPTTEPTTQPTIQPTQPTTQLPTDSPTQPTTGSFCPGPVTLCSDLESHSTEAVLGDALVDFSLKLYHAFSAMKKVETNMAFSPFSIASLLTQVLLGAGENTKTNLESILSYPKDFTCVHQALKGFTTKGVTSVSQIFHSPDLAIRDTFVNASRTLYSSSPRVLSNNSDANLELINTWVAKNTNNKISRLLDSLPSDTRLVLLNAIYLSAKWKTTFDPKKTRMEPFHFKNSVIKVPMMNSKKYPVAHFIDQTLKAKVGQLQLSHNLSLVILVPQNLKHRLEDMEQALSPSVFKAIMEKLEMSKFQPTLLTLPRIKVTTSQDMLSIMEKLEFFDFSYDLNLCGLTEDPDLQVSAMQHQTVLELTETGVEAAAASAISVARTLLVFEVQQPFLFVLWDQQHKFPVFMGRVYDPRA
- effect on vascular permeability and lesions (sepsis [2]): reduce vascular permeability in multiple organs and reduce lesions
- effect on infarct size [5]: reduced infarct size
- clinical outcome (sepsis [6]): Clinical improvement
